Measurements: patent US6747023B1 (Daiichi Pharmaceutical Co., Ltd., priority 1998, dated 2004)
Blank lines part the entries; values can stand above or below the compound they belong to.

Legend:
human Factor Xa = human Factor Xa (Homo sapiens, UniProt P00742); experiment: Test of oral administration: anti-FXa activity in the plasma; assay type: in vivo, Wistar male rat; settings: rat, one hour after the oral administration of 30 mg/kg
Experimental: (§1) A sample was dissolved or suspended in a 0.5% (w/v) methyl cellulose solution and the resulting solution or suspension was orally administered (10 ml/kg) to a 8 to 11 week-old rat (Wistar male rat (Nippon SLC Co., Ltd.)) which had been fasted overnight. After administration of the sample, the blood to which 1/10 part by weight of 3.13% (w/v) sodium citrate had been added was collected from the cervical vein under anesthesia with halothane. The rat was awakened except during the blood collection. Feeding was re-started 6 hours after the blood collection. From each blood sample, the plasma was separated by centrifugal separation and anti-FXa activity in the blood and prothrombin time extending action were measured.
In a 96-well plate, 5 μl of the plasma was poured in portions, followed by the addition of 55 μl of a 8:1:2 mixture of 100 mM tris.200 mM sodium chloride.0.2% BSA (pH 7.4) buffer, water and 0.1 U/ml human Factor Xa solution (dissolved in and diluted with a measuring buffer) and 40 μl of 750 μM S-2222. After stirring for 10 seconds in a plate mixer, an increase (mOD/min) of the absorbance at 405 nm was measured at room temperature. The inhibitory ratio was calculated as follows:
An inhibitory ratio (%)=(1−OD of sample÷OD of control on average relative to blood-collecting time of sample)×100

[1] = system: prothrombin time of the plasma; experiment: Test of oral administration: coagulation extending action (prothrombin time); assay type: in vivo, Wistar male rat; settings: rat, oral administration of 30 mg/kg
Experimental: as §1
To 20 μl of the plasma, 40 μl of cynplastin (Organon Teknika/USA) was added and the coagulation time was measured. The ratio of the prothrombin time after the administration of the sample relative to the prothrombin time before the administration of the sample was designated as an index of the coagulation extending action.

[2] = system: tissue thromboplastin-derived DIC; experiment: Anti-thrombus effects in a tissue thromboplastin-derived rat DIC model; assay type: in vivo; settings: oral 30 mg/kg, tissue thromboplastin one hour after the sample
Experimental: A rat was anesthetized with halothane. After the collection of the blood (for measurement of the number of platelets, anti-FXa activity and TAT) from its cervical vein by using 1/10 part by weight of 3.13% (w/v) sodium citrate, the sample was administered orally. At an appropriate time after the administration, the rat was intraperitoneally anesthetized ([…]) with Nembutal (50 mg/ml pentobarbital sodium, Abott Laboratories), followed by intravenous drip of 0.2 U/ml of tissue thromboplastin (Thromboplastin C plus, Dade Diagnostics of P. R. Inc.,) from the femoral vein for one minute at a rate of 2.5 to 3.0 ml/kg/min. The blood was collected (for measuring the number of platelets and anti-FXa activity) from the cervical vein 10 minutes after the intravenous drip and the blood was collected (for measuring TAT) from the cervical vein 20 minutes after the blood collection. The number of platelets, anti-FXa activity in the plasma and TAT concentration of each blood sample were measured. The number of the platelets was measured by an automatic cytometer, while the anti-FXa activity in the plasma was measured in a similar manner to that described in Test 4.
For the measurement of TAT (Thrombin-anti Thrombin=complex), EnzygnostR TAT micro kit (Boering Verke) was employed.

human Factor Xa, sequence (P00742 235-488 limits assumed): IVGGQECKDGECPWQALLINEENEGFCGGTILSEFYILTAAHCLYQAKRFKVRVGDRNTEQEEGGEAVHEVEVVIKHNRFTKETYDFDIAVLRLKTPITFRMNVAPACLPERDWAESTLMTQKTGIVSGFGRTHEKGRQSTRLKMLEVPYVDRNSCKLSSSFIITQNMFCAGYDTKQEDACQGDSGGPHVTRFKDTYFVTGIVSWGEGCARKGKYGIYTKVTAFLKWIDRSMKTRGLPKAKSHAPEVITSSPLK
human Factor Xa, sequence (P00742 41-179 partner limits assumed): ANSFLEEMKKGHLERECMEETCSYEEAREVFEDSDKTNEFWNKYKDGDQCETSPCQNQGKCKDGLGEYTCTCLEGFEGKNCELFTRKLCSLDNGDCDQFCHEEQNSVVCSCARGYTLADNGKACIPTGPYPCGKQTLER

SMILES: Cl.O=C(C1CC=C(c2ccncc2)CC1)N1CCN(S(=O)(=O)c2ccc3cc(Cl)ccc3c2)CC1 (racemic) [Example A-60, 1-[(6-Chloronaphthalen-2-yl)sulfonyl]-4-[[(1RS)-4-(pyridin-4-yl)-3-cyclohexene]carbonyl]piperazine hydrochloride]
anti-FXa activity in the plasma (human Factor Xa): 70%
extension of the prothrombin time (ratio after/before administration) [1]: 1.18 times

anti-FXa activity in the plasma (human Factor Xa): 68%
SMILES: CC1Cc2nc(C(=O)N3CCN(S(=O)(=O)c4ccc5cc(Cl)ccc5c4)CC3C(N)=O)sc2CN1.Cl (stereo not shown) [Example B-36, 2-Carbamoyl-4-[(6-chloronaphthalen-2-yl)sulfonyl]-1-[(6-methyl-4,5,6,7-tetrahydrothiazolo[5,4-c]pyridin-2-yl)carbonyl]piperazine hydrochloride]
thrombin time (result in words) [1]: extended the thrombin time
anti-FXa action in the plasma (result in words) [2]: apparent anti-FXa action in the plasma was recognized
decrease in the number of the platelets [2]: suppressed
increase in the TAT concentration [2]: suppressed
